Earlier results in patent US20050282843A1, “Therapeutic applications of 2-substituted 4-heteroarylpyrimidines” (priority 2002, published 2005).

Test system: GSK3
Details: known CDK inhibitors; cited from earlier work

In the case of `CC[C@H](CO)Nc1nc(NCc2ccccc2)c2ncn(C(C)C)c2n1` [roscovitine], the “inhibition of GSK3 (literature statement)” value is listed as “do not inhibit GSK3”.
